Where a name gives a salt, the structure may show the parent alone.

The nature of data set [1]: Influencing factor stability study (open containers, high temperature / high humidity, 30 days). In kind it is physicochemical.
Description: Influencing factor stability study: Samples of the free-state form were taken, spread in open containers, and left to stand under high-temperature (40 °C and 60 °C) and high-humidity (RH 75% and RH 92.5%) conditions for 30 days to study its stability.
Influencing factor stability study of salt forms: Samples of the salt forms were taken, spread in open containers, and left to stand under high-temperature (40 °C and 60 °C) and high-humidity (RH 75%) conditions for 30 days to study their stability.
The nature of data set [2]: Long-term/accelerated stability study (sealed in aluminum foil bags). In kind it is physicochemical. The conditions noted are these: for Crystal form: up to 6 months. An excerpt: The results are shown below. Table 16
The results are shown below. Table 20

Another data set concerns the target T1, androgen receptor (AR) (Homo sapiens, UniProt P10275, T878A).
T1 construct: host or cells: LNCaP
Nature of the data set: Degradation activity on androgen receptor in LNCaP cells (AR ELISA). In kind it is cell-based. The conditions noted are these: 0.1 nM R1881, 24 h. The method, then:
After five washes, 100 µL of detection antibody working solution was added. […] After five washes, 100 µL of enzyme conjugate working solution was added. […] After five washes, 100 µL of substrate solution was added.
(In general: An ELISA detects its analyte on a solid surface through an enzyme-linked reagent.)

Data set [3] can be described thus: Dynamic vapor sorption (DVS) hygroscopicity. In kind it is physicochemical.
The next data set can be described thus: in vivo. To be noted: both, beagle, dog, plasma, po, 2 mg/kg.
The nature of data set [4]: Pharmacokinetic evaluation in cynomolgus monkeys, intragastric administration, plasma LC/MS/MS. In kind it is in vivo. The conditions noted are these: both sexes, cynomolgus monkey, po, i.g., 2.0 mg/kg. Here is the method: Cynomolgus monkeys were used as test animals.
Eight cynomolgus monkeys (half male and half female, provided by Shanghai Medicilon Inc.) were evenly divided into 2 groups.
Access to food and ad libitum access to water were given 3 h after administration.

T1 sequence (P10275 whole entry T878A): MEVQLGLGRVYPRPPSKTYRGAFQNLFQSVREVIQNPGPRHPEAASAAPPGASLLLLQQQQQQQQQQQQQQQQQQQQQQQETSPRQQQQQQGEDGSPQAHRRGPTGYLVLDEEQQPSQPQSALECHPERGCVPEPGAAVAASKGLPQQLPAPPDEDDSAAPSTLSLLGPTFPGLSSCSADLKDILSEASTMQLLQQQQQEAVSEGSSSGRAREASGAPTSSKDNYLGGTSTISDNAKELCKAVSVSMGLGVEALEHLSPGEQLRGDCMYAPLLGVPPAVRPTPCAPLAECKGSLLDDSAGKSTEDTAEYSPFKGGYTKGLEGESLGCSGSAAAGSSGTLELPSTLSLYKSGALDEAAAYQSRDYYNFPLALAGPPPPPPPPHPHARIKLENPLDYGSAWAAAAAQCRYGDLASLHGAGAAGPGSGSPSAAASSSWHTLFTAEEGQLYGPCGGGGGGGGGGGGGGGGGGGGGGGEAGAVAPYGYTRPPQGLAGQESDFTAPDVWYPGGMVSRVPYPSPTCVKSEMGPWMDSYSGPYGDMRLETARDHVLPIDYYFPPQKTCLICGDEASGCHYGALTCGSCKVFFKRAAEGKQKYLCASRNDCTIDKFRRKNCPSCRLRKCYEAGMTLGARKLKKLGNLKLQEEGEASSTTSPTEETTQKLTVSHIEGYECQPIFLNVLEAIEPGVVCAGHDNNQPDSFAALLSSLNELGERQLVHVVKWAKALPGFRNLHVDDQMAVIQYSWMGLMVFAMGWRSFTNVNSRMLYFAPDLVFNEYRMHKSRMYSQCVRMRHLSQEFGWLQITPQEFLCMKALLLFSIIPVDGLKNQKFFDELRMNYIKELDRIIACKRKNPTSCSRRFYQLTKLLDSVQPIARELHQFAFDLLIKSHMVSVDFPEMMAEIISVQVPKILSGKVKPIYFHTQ
T1 sequence (Q96SW2 whole entry partner): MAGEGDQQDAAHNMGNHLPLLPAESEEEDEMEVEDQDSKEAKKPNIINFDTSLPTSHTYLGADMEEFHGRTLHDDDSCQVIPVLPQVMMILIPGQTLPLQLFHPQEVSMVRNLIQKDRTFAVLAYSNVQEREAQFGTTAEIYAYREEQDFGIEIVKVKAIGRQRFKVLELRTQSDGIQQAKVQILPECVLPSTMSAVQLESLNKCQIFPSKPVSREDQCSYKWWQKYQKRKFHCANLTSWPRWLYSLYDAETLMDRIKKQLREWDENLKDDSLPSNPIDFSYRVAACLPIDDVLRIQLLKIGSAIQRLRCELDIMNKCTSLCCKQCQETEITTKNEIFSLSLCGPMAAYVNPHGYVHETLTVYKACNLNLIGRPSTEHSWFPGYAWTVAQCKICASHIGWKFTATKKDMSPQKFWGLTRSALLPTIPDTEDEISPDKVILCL
Description for in vivo: Beagles were used as test animals. The plasma concentrations of a compound of the present disclosure in beagles at different time points after intragastric (i.g.) administration were determined using an LC/MS/MS method. The pharmacokinetic behavior of the compound of the present disclosure in beagles was studied, and its pharmacokinetic profile was evaluated.
Eight beagles (half male and half female, provided by Jiangsu Johnbio Biotechnology Co., Ltd.) were evenly divided into 2 groups. The animals were fasted overnight and then subjected to intragastric administration.
The administration dose was 2.0 mg/kg, and the administration volume was 5.0 mL/kg.
The samples were then placed into EDTA-K2 anticoagulation test tubes and centrifuged at 10,000 rpm for 2 min (4 °C), and plasma was separated within 1 h and stored at -80 °C before analysis. The procedures from the blood collection to the centrifugation were performed under ice-bath conditions. Access to food was given 3 h after administration.
After administration of different concentrations of the test compounds, the plasma concentrations of the test compounds in the beagles were determined as follows: 50 µL of each of the beagle plasma samples collected at various time points after administration was taken; 25 µL of camptothecin (1 µg/mL) and 450 µL of acetonitrile were added to precipitate protein, and the mixture was vortex-mixed and then centrifuged at 3700 rpm for 10 min; 0.5 µL of the supernatant was taken for LC/MS/MS analysis.

Take `C[C@H]1CC2(CCN(c3ccc(C(=O)N4CCC(CN5CCN(c6cccc(N[C@H]7CCC(=O)NC7=O)c6)CC5)CC4)cc3F)CC2)CN1c1ccc(C#N)c(Cl)c1` [Amorphous form, 2-chloro-4-((S)-8-(4-(4-((4-(3-(((S)-2,6-dioxopiperidin-3-yl)amino)phenyl)piperazin-1-yl)methyl)piperidine-1-carbonyl)-2-fluorophenyl)-3-methyl-2,8-diazaspiro[4.5]decan-2-yl)benzonitrile]: the Crystal form entry in data set [1] (40 °C, 5 days) is given as “No change”; in data set [1] (40 °C, 10 days), “No change”; in data set [1] (40 °C, 30 days), “No change”; in data set [1] (60 °C, 5 days), “No change”; in data set [1] (60 °C, 10 days) it was “No change”; in data set [1] (60 °C, 30 days), “No change”. Also, the Crystal form entry is recorded as “No change” in data set [1] (75% RH, 5 days); “No change” in data set [1] (75% RH, 10 days); “No change” in data set [1] (75% RH, 30 days); “No change” in data set [1] (92.5% RH, 5 days); “No change” in data set [1] (92.5% RH, 10 days); “No change” in data set [1] (92.5% RH, 30 days). The Crystal form entry in data set [2] (25 °C/60% RH) and in data set [2] (40 °C/75% RH) was “No change” throughout. Further, the “Purity (%)” value came to 98.7% in data set [1] (40 °C, 5 days); 98.6% in data set [1] (40 °C, 10 days); 98.6% in data set [1] (40 °C, 30 days); 98.6% in data set [1] (60 °C, 5 days); 98.6% in data set [1] (60 °C, 10 days); 98.4% in data set [1] (60 °C, 30 days). For the same molecule, the “Purity (%)” value in data set [1] (75% RH, 5 days) amounted to 98.7%; in data set [1] (75% RH, 10 days), 98.7%; in data set [1] (75% RH, 30 days), 98.7%; in data set [1] (92.5% RH, 5 days), 98.7%; in data set [1] (92.5% RH, 10 days) it was 98.7%; in data set [1] (92.5% RH, 30 days) it was 98.6%. In addition, the “Purity (%)” value is on record as 98.8% in data set [1] (Initial, 0 days); 98.7% in data set [2] (25 °C/60% RH, 1 month); 98.5% in data set [2] (25 °C/60% RH, 2 months); 98.5% in data set [2] (25 °C/60% RH, 3 months); 98.5% in data set [2] (25 °C/60% RH, 6 months); 98.8% in data set [2] (25 °C/60% RH, Initial). Further, the “Purity (%)” value was determined as 98.7% in data set [2] (40 °C/75% RH, 1 month); 98.4% in data set [2] (40 °C/75% RH, 2 months); 98.4% in data set [2] (40 °C/75% RH, 3 months); 98.3% in data set [2] (40 °C/75% RH, 6 months); 98.8% in data set [2] (40 °C/75% RH, Initial). In addition, in data set [1] (high-temperature and high-humidity conditions), the chemical stability entry was “good chemical stability”. For the same molecule, in data set [2] (long-term accelerated conditions for 6 months), the “physical and chemical stability” value was “good physical and chemical stability”.

Consider `C[C@H]1CC2(CCN(c3ccc(C(=O)N4CCC(CN5CCN(c6cccc(N[C@H]7CCC(=O)NC7=O)c6)CC5)CC4)cc3F)CC2)CN1c1ccc(C#N)c(Cl)c1` [Amorphous form of maleate], for which the “Purity (%)” value in data set [2] (25 °C/60% RH, 1 month) is listed as 98.9%; in data set [2] (25 °C/60% RH, 2 months) it was 98.9%; in data set [2] (25 °C/60% RH, 3 months) it was 98.9%; in data set [2] (25 °C/60% RH, 6 months) it was 98.7%; in data set [2] (25 °C/60% RH, Initial), 98.9%; in data set [2] (40 °C/75% RH, 1 month) it was 98.7%. For the same molecule, the “Purity (%)” value came to 98.6% in data set [2] (40 °C/75% RH, 2 months); 98.3% in data set [2] (40 °C/75% RH, 3 months); 94.8% in data set [2] (40 °C/75% RH, 6 months); 98.9% in data set [2] (40 °C/75% RH, Initial). Besides, the Crystal form entry in data set [2] (25 °C/60% RH) and in data set [2] (40 °C/75% RH) was “No change” each time.

For the molecule `C[C@H]1CC2(CCN(c3ccc(C(=O)N4CCC(CN5CCN(c6cccc(N[C@H]7CCC(=O)NC7=O)c6)CC5)CC4)cc3F)CC2)CN1c1ccc(C#N)c(Cl)c1` [Example 1-1, 2-Chloro-4-((S)-8-(4-(4-((4-(3-(((S)-2,6-dioxopiperidin-3-yl)amino)phenyl)piperazin-1-yl)methyl)piperidine-1-carbonyl)-2-fluorophenyl)-3-methyl-2,8-diazaspiro[4.5]decan-2-yl)benzonitrile], the DC50 (usually the concentration at which degradation of the target reaches its halfway point) at androgen receptor (AR) amounted to 4.2 nM.

For `C[C@H]1CC2(CCN(c3ccc(C(=O)N4CCC(CN5CCN(c6cccc(N[C@H]7CCC(=O)NC7=O)c6)CC5)CC4)cc3F)CC2)CN1c1ccc(C#N)c(Cl)c1` [Crystal form A of mandelate], the Crystal form result is recorded as “No change” in data set [1] (40 °C, 5 days); “No change” in data set [1] (40 °C, 10 days); “No change” in data set [1] (40 °C, 30 days); “No change” in data set [1] (60 °C, 5 days); “No change” in data set [1] (60 °C, 10 days); “No change” in data set [1] (60 °C, 30 days). In addition, the Crystal form entry is listed as “No change” in data set [1] (75% RH, 5 days); “No change” in data set [1] (75% RH, 10 days); “No change” in data set [1] (75% RH, 30 days); “No change” in data set [2] (25 °C/60% RH); “No change” in data set [2] (40 °C/75% RH). Moreover, the “Purity (%)” value is reported as 98.6% in data set [1] (40 °C, 5 days); 98.6% in data set [1] (40 °C, 10 days); 98.4% in data set [1] (40 °C, 30 days); 98.4% in data set [1] (60 °C, 5 days); 98.5% in data set [1] (60 °C, 10 days); 98.2% in data set [1] (60 °C, 30 days). Also, the “Purity (%)” value in data set [1] (75% RH, 5 days) was 98.5%; in data set [1] (75% RH, 10 days), 98.5%; in data set [1] (75% RH, 30 days), 98.5%; in data set [1] (Initial, 0 days) it was 98.6%; in data set [2] (25 °C/60% RH, 1 month) it was 99.4%; in data set [2] (25 °C/60% RH, 2 months), 99.3%. In addition, the “Purity (%)” value in data set [2] (25 °C/60% RH, 3 months) amounted to 99.3%; in data set [2] (25 °C/60% RH, 6 months), 99.3%; in data set [2] (25 °C/60% RH, Initial), 99.4%; in data set [2] (40 °C/75% RH, 1 month) it was 99.4%; in data set [2] (40 °C/75% RH, 2 months), 99.3%; in data set [2] (40 °C/75% RH, 3 months) it was 99.3%. The “Purity (%)” value in data set [2] (40 °C/75% RH, 6 months) came out at 98.9%; in data set [2] (40 °C/75% RH, Initial) it was 99.4%. Besides, the hygroscopic weight gain entry in data set [3] (accelerated test conditions, 70% RH) is recorded as “about 1.047%”; in data set [3] (extreme conditions, 90% RH), “about 2.245%”; in data set [3] (normal storage conditions, 25 °C and 60% RH), “about 0.833%”. For the same molecule, the “crystal form before and after DVS testing (XRPD)” value in data set [3] (before and after DVS testing) was “did not change”.

For `C[C@H]1CC2(CCN(c3ccc(C(=O)N4CCC(CN5CCN(c6cccc(N[C@H]7CCC(=O)NC7=O)c6)CC5)CC4)cc3F)CC2)CN1c1ccc(C#N)c(Cl)c1` [Crystal form I of hydrochloride], the Crystal form result is “No change” in data set [1] (40 °C, 5 days); “No change” in data set [1] (40 °C, 10 days); “No change” in data set [1] (60 °C, 5 days); “No change” in data set [1] (60 °C, 10 days); “No change” in data set [1] (75% RH, 5 days); “No change” in data set [1] (75% RH, 10 days). Also, the “Purity (%)” value in data set [1] (40 °C, 5 days) was found to be 97.5%; in data set [1] (40 °C, 10 days) it was 96.9%; in data set [1] (40 °C, 30 days), 95.3%; in data set [1] (60 °C, 5 days), 97.2%; in data set [1] (60 °C, 10 days) it was 96.5%; in data set [1] (60 °C, 30 days) it was 94.5%. For the same molecule, the “Purity (%)” value was 97.5% in data set [1] (75% RH, 5 days); 97.1% in data set [1] (75% RH, 10 days); 96.5% in data set [1] (75% RH, 30 days); 98.1% in data set [1] (Initial, 0 days).

Regarding `C[C@H]1CC2(CCN(c3ccc(C(=O)N4CCC(CN5CCN(c6cccc(N[C@@H]7CCC(=O)NC7=O)c6)CC5)CC4)cc3F)CC2)CN1c1ccc(C#N)c(Cl)c1` [Example 1-2, 2-Chloro-4-((S)-8-(4-(4-((4-(3-(((R)-2,6-dioxopiperidin-3-yl)amino)phenyl)piperazin-1-yl)methyl)piperidine-1-carbonyl)-2-fluorophenyl)-3-methyl-2,8-diazaspiro[4.5]decan-2-yl)benzonitrile], the DC50 at androgen receptor (AR) stood at 14.2 nM.

On to `C[C@H]1CC2(CCN(c3ccc(C(=O)N4CCC(CN5CCN(c6cccc(NC7CCC(=O)NC7=O)c6)CC5)CC4)cc3F)CC2)CN1c1ccc(C#N)c(Cl)c1` (stereo partly drawn) [Example 1, 2-Chloro-4-((3S)-8-(4-(4-((4-(3-((2,6-dioxopiperidin-3-yl)amino)phenyl)piperazin-1-yl)methyl)piperidine-1-carbonyl)-2-fluorophenyl)-3-methyl-2,8-diazaspiro[4.5]decan-2-yl)benzonitrile], for which the DC50 at androgen receptor (AR) amounted to 2.5 nM.

Turning to `C[C@H]1CC2(CCN(c3ccc(C(=O)N4CCC(CN5CCN(c6cccc(N[C@H]7CCC(=O)NC7=O)c6)CC5)CC4)cc3F)CC2)CN1c1ccc(C#N)c(Cl)c1` [Crystal form B of succinate], the “Purity (%)” value came out at 98.5% in data set [2] (25 °C/60% RH, 1 month); 98.5% in data set [2] (25 °C/60% RH, 2 months); 98.7% in data set [2] (25 °C/60% RH, 3 months); 98.6% in data set [2] (25 °C/60% RH, 6 months); 98.7% in data set [2] (25 °C/60% RH, Initial); 98.5% in data set [2] (40 °C/75% RH, 1 month). Further, the “Purity (%)” value is 98.5% in data set [2] (40 °C/75% RH, 2 months); 98.5% in data set [2] (40 °C/75% RH, 3 months); 98.3% in data set [2] (40 °C/75% RH, 6 months); 98.7% in data set [2] (40 °C/75% RH, Initial). Besides, the Crystal form result in data set [2] (25 °C/60% RH) and in data set [2] (40 °C/75% RH) was “No change” throughout.

As for `N#Cc1ccc(O[C@H]2CC[C@H](NC(=O)c3ccc(N4CCC(CN5CCN(c6cc7c(cc6F)C(=O)N(C6CCC(=O)NC6=O)C7=O)CC5)CC4)nn3)CC2)cc1Cl` (stereo partly drawn) [ARV-110], the figures for the AUC(0-t) (in the data set “in vivo”; in data set [4] (read-out: Area under curve AUC0-t)) were 239 ng·h/mL and 282 ng·h/mL, respectively. Further, the CL/F in “in vivo” was 70.9 mL/min/kg; in data set [4] (read-out: Clearance rate CL/F), 44.6 mL/min/kg. Besides, the Cmax in the data set “in vivo” was 13 ng/mL; in data set [4] (read-out: Plasma concentration Cmax), 15.9 ng/mL.

The values above are taken from patent publication EP4722215A1, “AMORPHOUS SUBSTANCE AND CRYSTAL OF DIOXOPIPERIDINE COMPOUND OR PHARMACEUTICALLY ACCEPTABLE SALT THEREOF, PREPARATION METHOD, AND USE” (Jiangsu Hengrui Pharmaceuticals Co., Ltd., priority 2023, dated 2024).
